Measured values published in ChEMBL document CHEMBL6182916, “Unexpected Discovery of a Novel Triphenylphosphonium Alkylalcohol That Triggers Cancer Cell Death via Mitophagy and Ferroptosis” (J Med Chem, 2025).
The source made the active and inactive calls. No cut-off for these calls is given here.

Experiments:
[1] = Drug accumulation in mitochondria of human HCC827 cells at 10 uM incubated for 5 mins; format: ADME; conditions: hcc827, 5 min
[2] = system: HCC827; experiment: Induction of mitochondrial dysfunction in human HCC827 cells assessed as cytochrome C release in cytoplasm at 0.4 uM measured after 72 hrs by laser scanning confocal fluorescence microscopic analysis; format: functional, cell-based
[3] = system: HCC827; experiment: Induction of apoptosis in human HCC827 cells assessed as necrotic cells at 0.25 uM measured after 48 hrs by annexin V and PI staining based flow cytometry analysis (reference value: 1.18%); format: functional
[4] = system: HCC827; experiment: Effect on UQCRC2 expression in human HCC827 cells at 0.25 to 0.5 uM; format: functional, cell-based; conditions: dose 0.25-0.5 µM
[5] = system: Osimertinib-resistant NCI-H1975 cell; experiment: Antiproliferative activity against human Osimertinib-resistant NCI-H1975 cell assessed as inhibition of cell growth measured after 72 hrs by MTT assay; format: functional, cell-based
[6] = system: HCC827; experiment: Induction of mitochondrial dysfunction in human HCC827 cells assessed as mitochondrial shrinkage by TEM analysis; format: functional, cell-based
[7] = system: HCC827; experiment: Antiproliferative activity against human HCC827 cells assessed as increase in cell viability at 1 uM measured after 48 hrs in presence of 3-MA by MTT assay; format: functional, cell-based
[8] = system: Mitochondrial membrane; experiment: Induction of mitochondrial membrane depolarization in human HCC827 cells assessed as increase green fluorescence intensity at 0.125 to 0.5 uM incubated for 4 hrs by rhodamine 123 staining based confocal microscopy analysis; format: cell membranes; conditions: dose 0.125-0.5 µM
[9] = system: HEK-293T; experiment: Inhibition of colony formation in HEK293T cells at 0.05 to 0.1 uM incubated for 72 hrs by crystal violet staining based analysis; format: functional, cell-based; conditions: Homo sapiens, dose 0.05-0.1 µM
[10] = Toxicity in female BALB/c mouse assessed as histopathological changes in heart at 30 mg/kg, ip measured for 7 days by H and E staining based analysis; format: organism-based; conditions: in vivo, 168 h, time 7 day
[11] = system: HCC827; experiment: Induction of apoptosis in human HCC827 cells assessed as viable cells at 1 uM measured after 24 hrs by annexin V and PI staining based flow cytometry analysis (reference value: 95.10%); format: functional; conditions: read-out: Activity
[12] = system: HCC827; experiment: Induction of apoptosis in human HCC827 cells assessed as viable cells at 1 uM measured after 36 hrs by annexin V and PI staining based flow cytometry analysis (reference value: 95.10%); format: functional; conditions: read-out: Activity
[13] = system: HCC827; experiment: Induction of apoptosis in human HCC827 cells assessed as late apoptotic cells at 1 uM measured after 24 hrs by annexin V and PI staining based flow cytometry analysis (reference value: 2.18%); format: functional
[14] = system: HCC827; experiment: Induction of mitochondrial dysfunction in human HCC827 cells assessed as suppression of ATP production incubated for 4 hrs by Seahorse XF96 extracellular flux analyzer; format: functional, cell-based; conditions: dose 0.125-5 µM
[15] = system: HCC827; experiment: Induction of ROS generation in human HCC827 cells assessed as green fluorescence intensity at 1 uM incubated for 24 hrs by DCFH-DA staining based by absorbance based laser confocal microscopic analysis; format: functional, cell-based
[16] = system: HCC827; experiment: Antiproliferative activity against human HCC827 cells assessed as increase in cell viability at 1 uM measured after 48 hrs in presence of Rapa by MTT assay; format: functional, cell-based
[17] = system: HCC827; experiment: Downregulation of TOMM20 expression level in human HCC827 cells at 0.5 uM incubated for 24 hrs in presence of Baf A1 by Western blot analysis; format: functional, cell-based
[18] = system: HCC827; experiment: Upregulation of PINK1 level in human HCC827 cells at 0.25 to 0.5 uM measured after 24 hrs; format: functional, cell-based; conditions: dose 0.25-0.5 µM
[19] = Toxicity in female BALB/c mouse assessed as histopathological changes in liver at 30 mg/kg, ip measured for 7 days by H and E staining based analysis; format: organism-based; conditions: in vivo, 168 h, time 7 day
[20] = Toxicity in female BALB/c mouse assessed as histopathological changes in spleen at 30 mg/kg, ip measured for 7 days by H and E staining based analysis; format: organism-based; conditions: in vivo, 168 h, time 7 day
[21] = system: HCC827; experiment: Induction of ROS generation in human HCC827 cells at 1 uM incubated for 4 hrs in presence of NAC by DCFH-DA staining based by absorbance based laser confocal microscopic analysis; format: functional, cell-based
[22] = system: HCC827; experiment: Antitumor activity against human HCC827 cells xenografted in female nude mouse model assessed as suppression of tumor growth at 5 to 10 mg/kg, ip measured every two days for 14 days; format: functional, organism-based; conditions: dose 5-10 mg/kg, time 14.0 day
[23] = system: BEAS-2B; experiment: Induction of mitochondrial dysfunction in human BEAS-2B cells assessed as decrease in ATP production at 0.125 to 5 uM incubated for 4 hrs by Seahorse XF96 extracellular flux analyzer; format: functional, cell-based; conditions: dose 0.125-5 µM
[24] = system: HCC827; experiment: Effect on ATP5A expression in human HCC827 cells at 0.25 to 0.5 uM incubated for 24 hrs by Western blot analysis; format: functional, cell-based; conditions: dose 0.25-0.5 µM
[25] = system: HCC827; experiment: Downregulation of VDAC1 expression level in human HCC827 cells incubated for 24 hrs by Western blot analysis; format: functional, cell-based; conditions: dose 0.25-5 µM
[26] = system: HCC827; experiment: Antimetastatic activity against human HCC827 cells xenografted in female nude mouse model assessed as decrease in snail level at 5 to 10 mg/kg, ip by Western blot analysis; format: functional, organism-based; conditions: dose 5-10 mg/kg
[27] = system: HeLa; experiment: Induction of mitophagy in human HeLa cells harbouring mCherry-GFP tag assessed as visible mCherry fluorescence at 0.5 uM incubated for 24 hrs by confocal microscopy analysis; format: functional, cell-based
[28] = system: HCC827; experiment: Inhibition of colony formation in human HCC827 cells incubated for 72 hrs by crystal violet staining based analysis; format: functional, cell-based; conditions: dose 50-100 nM
[29] = system: HCC827; experiment: Induction of apoptosis in human HCC827 cells assessed as necrotic cells at 1 uM measured after 48 hrs by annexin V and PI staining based flow cytometry analysis (Rvb =0.84%); format: functional
[30] = system: HCC827; experiment: Upregulation of parkin phosphorylation level in human HCC827 cells at 0.25 to 0.5 uM measured after 24 hrs; format: functional, cell-based; conditions: dose 0.25-0.5 µM
[31] = system: HCC827; experiment: Induction of ferroptosis in human HCC827 cells assessed as decrease in GSH level incubated for 24 hrs by absorbance based analysis; format: functional, cell-based; conditions: dose 0.5-2 µM
[32] = system: HCC827; experiment: Induction of apoptosis in human HCC827 cells assessed as late apoptotic cells at 0.25 uM measured after 48 hrs by annexin V and PI staining based flow cytometry analysis (reference value: 1.29%); format: functional
[33] = system: HCC827; experiment: Downregulation of TOMM20 expression level in human HCC827 cells at 0.5 uM by Western blot analysis; format: functional, cell-based; conditions: time 3-24 hrs
[34] = system: HCC827; experiment: Downregulation of SDHB expression in human HCC827 cells at 0.25 to 0.5 uM; format: functional, cell-based; conditions: dose 0.25-0.5 µM
[35] = system: HeLa; experiment: Induction of mitophagy in human HeLa cells assessed as colocalization of mitochondria and lysosomes at 0.5 uM by mitoGFP staining based confocal microscopy analysis; format: functional, cell-based
[36] = system: NCI-H1299; experiment: Antiproliferative activity against human NCI-H1299 cells assessed as inhibition of cell growth measured after 72 hrs by MTT assay; format: functional, cell-based; conditions: NCI-H1299, 72 h
[37] = system: HeLa; experiment: Induction of mitophagy in human HeLa cells assessed as colocalization of mitochondria and lysosomes at 0.5 uM by lysotracker red staining based confocal microscopy analysis; format: functional, cell-based
[38] = system: HCC827; experiment: Downregulation of TOMM20 expression level in human HCC827 cells incubated for 24 hrs by Western blot analysis; format: functional, cell-based; conditions: dose 0.25-0.5 µM

Cc1ccc([P+](CCCCCCCCCCO)(c2ccc(C)cc2)c2ccc(C)cc2)cc1.[Br-]
Drug uptake [1]: 93%
Activity [2]: Active
Activity [3]: 2.91%
Activity [4]: Active
IC50 [5]: 230 nM
Activity [6]: Active
Activity [7]: Active
Activity [8]: inactive
inhibition [9]: Minimal_effect
Activity [10]: Non-toxic
viability at 1 µM [11]: 93.6%
viability at 1 µM [12]: 98.5%
Activity [13]: 3.84%
Activity [14]: Dose-dependent-effect
Activity [15]: Active
Activity [16]: inactive
Activity [17]: inactive
Activity [18]: Active
Activity [19]: Non-toxic
Activity [20]: Non-toxic
Activity [21]: inactive
Activity [22]: Active
Activity [23]: Minimal_effect
Activity [24]: Active
Activity [25]: Dose-dependent-effect
Activity [26]: Active
Activity [27]: Active
inhibition [28]: Dose-dependent-effect
Activity [29]: 2.02%
Activity [30]: Active
Activity [31]: Dose-dependent-effect
Activity [32]: 3.3%
Activity [33]: Time-dependent-effect
Activity [34]: Active
Activity [35]: Active
IC50 [36]: 210 nM
Activity [37]: Active
Activity [38]: Dose-dependent-effect
